One data set concerns MRC5. Description: Antiproliferative activity against human MRC5 cells after 72 hrs by MTT assay. It is filed as cell-based. The conditions noted are these: MRC5, 72 h. On the technique in general: Tetrazolium dyes change colour on reduction, which living cells bring about.
Data set [1] relates to SK-N-MC. Description: cells. Particulars: Homo sapiens, 72 h.
Description: Antiproliferative activity against human SK-N-MC cells after 72 hrs by MTT assay
The nature of data set [2]: Partition coefficient, log P of the compound. The conditions noted are these: octanol/water. Format: physicochemical.
Data set [3] relates to SK-N-MC. Description: Effect on iron release in SK-N-MC cells. It is filed as functional, Homo sapiens.
In data set [4] the test system is SK-N-MC. The experiment in a line: Inhibition of iron uptake from transferrin in SK-N-MC cells at 50 uM relative to control. The arrangement: scale not given: the % may be the effect or the level left. Format: functional, Homo sapiens.

A value given as a limit tells only on which side of the number the result lay.

One may read the IC50 as the concentration needed to halve the response being measured. Broadly, the logP is a log measure of how a compound divides between an organic and an aqueous phase. As to `CN(C)C(=S)N/N=C(\c1ccccc1)c1ccccn1`, the IC50 is greater than 6.25 µM in the data set with MRC5 and 0.004 µM with SK-N-MC [1]. This compound displayed a logP in data set [2] of 1.29.

Turning to `NC(=S)N/N=C(\c1ccccc1)c1ccccn1`, the Activity in the data set with SK-N-MC [3] stood at 23%. The same compound registered an IC50 with SK-N-MC [1] of 4.66 µM. Also, the logP in data set [2] is 1.92.

With `CNC(=S)N/N=C(\c1ccccc1)c1ccccn1`, the IC50 with MRC5 is greater than 6.25 µM; in the data set with SK-N-MC [1], 0.004 µM. In data set [2], the log partition coefficient (logP) stood at 0.74.

In turn, `CN(C)C(=S)NN=C(c1ccccn1)c1ccccn1` showed an IC50 in the data set on SK-N-MC [1] of 0.001 µM.

For `O=C(N/N=C/c1c(O)ccc2ccccc12)c1ccncc1`, in the data set with SK-N-MC [1], it took 0.71 µM to reach half-maximal inhibition (IC50). The compound also came in with an Activity in the data set with SK-N-MC [4] of 9%.

In the case of `NC(=S)N/N=C(\c1cccc([N+](=O)[O-])c1)c1ccccn1`, the results for the Activity with SK-N-MC [3] and in the data set with SK-N-MC [4] were 43% and 7%, respectively. The compound also returned an IC50 in the data set with SK-N-MC [1] of 3.82 µM. The compound also had a lipophilicity (logP) in data set [2] of 1.9.

Take `CNC(=S)N/N=C(\c1cccc([N+](=O)[O-])c1)c1ccccn1`: 0.13 µM corresponded to half-maximal inhibition in the data set on SK-N-MC [1] (IC50). The compound also showed an Activity in the data set with SK-N-MC [4] of 8%. The compound also yielded a lipophilicity (logP) in data set [2] of 2.14.

As to `CCNC(=S)N/N=C(\c1cccc([N+](=O)[O-])c1)c1ccccn1`, the IC50 came to 2.31 µM in the data set on MRC5 and 0.014 µM in the data set with SK-N-MC [1]. Besides, the logP in data set [2] was 2.53.

Turning to `C=CCNC(=S)N/N=C(\c1ccccc1)c1ccccn1`, the half-inhibitory concentration (IC50) with MRC5 is greater than 6.25 µM; in the data set on SK-N-MC [1], 0.004 µM. The same compound gave a logP in data set [2] of 2.69.

As for `C=CCNC(=S)N/N=C(\c1cccc([N+](=O)[O-])c1)c1ccccn1`, the figures for the IC50 in the data set with MRC5 and in the data set on SK-N-MC [1] were 2.39 µM and 0.013 µM, respectively. The same compound showed an Activity with SK-N-MC [4] of 11%. The same compound displayed a logP in data set [2] of 1.7.

As for `S=C(N/N=C(\c1ccccc1)c1ccccn1)Nc1ccccc1`, the 50% inhibitory concentration (IC50) is 1.86 µM with MRC5 and 0.005 µM in the data set with SK-N-MC [1]. For the same compound, the lipophilicity (logP) in data set [2] turned out to be 1.92.

For `CCNC(=S)N/N=C(\c1ccccc1)c1ccccn1`, the values for the IC50 with MRC5 and in the data set with SK-N-MC [1] were greater than 6.25 µM and 0.002 µM, respectively. In data set [2], the logP is 4.01.

For `CC(=O)N(O)CCCCCNC(=O)CCC(=O)N(O)CCCCCNC(=O)CCC(=O)N(O)CCCCCN` [DEFEROXAMINE], the Activity with SK-N-MC [3] stood at 7%. In the data set on SK-N-MC [1], this compound registered a half-inhibitory concentration (IC50) of 4.51 µM.

As for `Cc1ncc(CO)c(/C=N/NC(=O)c2ccncc2)c1O` [PYRIDOXAL ISONICOTINOYL HYDRAZONE], the Activity with SK-N-MC [4] turned out to be 21%.

Regarding `NC(=S)N/N=C/c1ncccc1N` [TRIAPINE], the IC50 in the data set with SK-N-MC [1] was found to be 0.26 µM.

(Values after ChEMBL document CHEMBL1146224, “Design, synthesis, and characterization of novel iron chelators: structure-activity relationships of the 2-benzoylpyridine thiosemicarbazone series and their 3-nitrobenzoyl analogues as potent antitumor agents” (J Med Chem, 2007).)
